According to patent US5696117A, “Benzoxazine antimicrobial agents” (Ortho Pharmaceutical Corporation, priority 1995, dated 1997):

Biological target: T1, Kinase A and SpoOF (Bacillus subtilis, UniProt P16497)
T1 construct: made in house; host or cells: recombinant E. coli (overexpression)
T1 sequence (P16497 1-606): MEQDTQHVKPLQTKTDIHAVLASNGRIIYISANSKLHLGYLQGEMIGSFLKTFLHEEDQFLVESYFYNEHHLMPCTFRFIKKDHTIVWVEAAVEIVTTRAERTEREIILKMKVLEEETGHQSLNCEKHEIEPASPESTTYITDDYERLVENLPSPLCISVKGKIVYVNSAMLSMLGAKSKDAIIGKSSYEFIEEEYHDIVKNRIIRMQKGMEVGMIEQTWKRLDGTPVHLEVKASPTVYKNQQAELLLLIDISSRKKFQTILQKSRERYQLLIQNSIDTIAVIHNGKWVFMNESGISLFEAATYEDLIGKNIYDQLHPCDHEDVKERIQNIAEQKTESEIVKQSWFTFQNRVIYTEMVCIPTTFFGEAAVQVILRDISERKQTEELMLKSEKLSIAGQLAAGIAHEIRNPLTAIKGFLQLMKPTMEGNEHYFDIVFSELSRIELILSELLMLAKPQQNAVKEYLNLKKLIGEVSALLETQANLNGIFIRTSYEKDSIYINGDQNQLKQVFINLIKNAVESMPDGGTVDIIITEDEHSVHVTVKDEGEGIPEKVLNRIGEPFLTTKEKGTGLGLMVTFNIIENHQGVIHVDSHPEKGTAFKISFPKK
Assay: Autophosphorylation of Kinase A and Transphosphorylation of SpoOF Assay (HPK in vitro assay)
Format: biochemical
Conditions: inhibition of KinA autophosphorylation / SpoOF transphosphorylation, inhibitor concentrations from 1 to 500 μM
Protocol: 1. Autophosphorylation of Kinase A and Transphosphorylation of SpoOF Assay
To study the effect of the compounds of the present invention on the signal transduction process in bacteria, the inhibiting effect of the compounds on the sporulation operon proteins Kinase A and SpoOF was examined. Specifically, the inhibition of autophosphorylation of Kinase A and the transphosphorylation of SpoOF was determined in the following assays. The SpoOF response regulator is the primary substrate for phosphorylation by the protein kinase, Kin A, involved in the sporulation process in bacteria. See D. Burbulys, K. A. Trach, J. A. Hoch, Cell, 64, 545-552 (1991). SpoOF and KinA were prepared from recombinant E. coli overexpressing the proteins (J. Cavanagh et al, Amino Acids, 6, 131-140 (1994) and references therein).
The following stock reagents were either prepared and used promptly or stored at the indicated temperature:
8× Salts: 2M KCl (5 mL), 1M MgCl2 (800 mL), 1M CaCl2 (100 mL), 10 mg/mL phenylmethylsulfonyl fluoride (200 mL), 1M dithioreitol (50 mL), 0.25M Na2 EDTA (32 mL) and H2 O 3.82 mL (-20° C.)
5× Loading Dye: 0.5M TRIS-HCl-pH 6.8 (7.5 mL), 10% SDS (2 mL) 0.1% bromophenol blue (0.5 mL), 100% glycerol (3 mL) and 12.5M 2-mercaptoethanol (0.3 mL)
1-1.3 mg/mL KinA:15 mM TRIS-HCl, pH 8.0, 6 mM KCl; 4 mM 2-mercaptoethanol; 40% glycerol (-20° C.)
1 mg/mL SpoOF: 17.5 mM TRIS-HCl, pH 8.0; 0.7 mM KCl; 0.7 mM MgCl2; 0.7 mM CaCl2; 5mM 2-mercaptoethanol; 30% Glycerol (-20° C.)
5% Stacking Gel: 40% 29:1 acrylamide:bis acrylamide (1.25 mL), 0.5M TRIS-HCl, pH 6.8 (2.5 mL), 10% SDS (0.1 mL), D-H2 O (6.15 mL) 10% ammonium persulfate (100 mL) and TEMED (25 mL)
SDS Running Buffer: TRIS-BASE (3.02 g), glycine (14.4 g) SDS (1 g), D-H2 O (to 1 L)
The reaction mixture was prepared from 8× Salts (87 μL), 1M TRIS, pH 8 (118 μL), 50% glycerol (63 μL), SpoOF (14.1 μL) and KinA (7.0 μL). Microcentrifuge tubes were charged with the reaction mixture (18.5 μL) and a 1.0 mM solution of the test compound in 5% DMSO (18.5 μL), and incubated for 15 min on ice. 100 mM ATP solution (3.0 μl, containing 625 μCi [^32 P]ATP) was added, and the mixture left for 10 minutes at room temperature. The reaction was quenched with 5× loading dye (10 μL per tube) and the samples were loaded on a prepared 5% Stacking Gel, or stored on dry ice until ready for use. The prepared wells were filled with SDS Running Buffer, samples were loaded into the wells, and 80 volts were applied to the gel until the dye front reached the bottom of the stacking gel. The voltage was then increased to 250 volts until electrophoresis was complete. Radioactive bands in the gel corresponding to phosphorylated KinA and SpoOF were imaged and quantitated with a phosphoimager.
If either enzyme was inhibited (as evidenced by the absence of labelled protein in the developed gel), an IC50 was calculated by running the assay with a range of inhibitor concentrations from 1 to 500 μM. After electrophoresis of the reaction mixtures, percent inhibition was determined by measuring the concentration of radioactive phosphorus with a phosphoimager and calculating the values using a software program (BioRad Molecular Analyst). IC50 values of less than 500 μM are considered active.

| SMILES | IC50 [µM] |
| --- | --- |
| COC(=O)c1ccc(CN2C(=O)C(CCOc3ccc(CCN)cc3)Oc3ccccc32)cc1 (centres unmarked) [Compound 104, 2-{2-[4-(2-Aminoethyl)phenoxy]ethyl}-4-(4-carbomethoxybenzyl)-3,4-dihydro-3-oxo-2H-1,4-benzoxazine] | 24 |
| CC(C)(C)OC(=O)N=C(NCCc1ccc(OCCC2Oc3ccccc3N(Cc3ccccc3)C2=O)cc1)NC(=O)OC(C)(C)C (centres unmarked) [Compound 27] | 340 |
| CC(C)(C)OC(=O)N=C(NCCc1ccc(OCCC2Oc3ccccc3N(Cc3csc(Cl)c3)C2=O)cc1)NC(=O)OC(C)(C)C (centres unmarked) [Compound 47, 2-{2-[4-[2-(N,N-Bis-tert-butoxycarbonylguanidino)ethyl]phenoxy]ethyl}-4-(2-chloro-4-thienylmethyl)-3,4-dihydro-3-oxo-2H-1,4-benzoxazine] | 398 |
| Cc1ccc(CN2CC(CCOc3ccc(CCNC(=N)N)cc3)Oc3ccccc32)cc1 (centres unmarked) [Compound 66, 3,4-Dihydro-2-{2-[4-[2-guanidinoethyl]phenoxy]ethyl}-4-(4-methylbenzyl)-2H-1,4-benzoxazine] | 19 |
| CC(C)(C)OC(=O)N=C(NCCc1ccc(OCCC2Oc3cc([N+](=O)[O-])ccc3N(Cc3cccc(Cl)c3)C2=O)cc1)NC(=O)OC(C)(C)C (centres unmarked) [Compound 80] | 162 |
| COc1ccc(CN2C(=O)C(CCOc3ccc(CCNC(=NC(=O)OC(C)(C)C)NC(=O)OC(C)(C)C)cc3)Oc3ccccc32)cc1 (centres unmarked) [Compound 140, 2-{2-[4-[2-(N,N-Bis-tert-butoxycarbonylguanidino)ethyl]phenoxy]ethyl}-3,4-dihydro-4(4-methoxybenzyl)-3-oxo-2H-1,4-benzoxazine] | 343 |
| N=C(N)NCCc1ccc(OCCC2Oc3ccncc3N(Cc3cccc(Cl)c3)C2=O)cc1 (centres unmarked) [Compound 62, 4-(3-Chlorobenzyl)-3,4-dihydro-2-[2-[4-(2-guanidinoethyl)phenoxy]ethyl]-3-oxo-2H-pyrido[4,3-b]-1,4-oxazine] | 174 |
| CC(C)(C)OC(=O)N=C(NCCc1ccc(OCCC2Oc3cc([N+](=O)[O-])ccc3N(Cc3ccccc3[N+](=O)[O-])C2=O)cc1)NC(=O)OC(C)(C)C (centres unmarked) [Compound 143, 2-{2-[4-(2-(N,N-Bis-tert-butoxycarbonylguanidino)ethyl)phenoxy]ethyl}-3,4-dihydro-7-nitro-4-(2-nitrobenzyl) 3-oxo-2H-1,4-benzoxazine] | 73 |
| N=C(N)NCCc1ccc(OCCC2Oc3ccccc3N(Cc3ccncc3)C2=O)cc1 (centres unmarked) [Compound 42, 3,4-Dihydro-2-{2-[4-(2-guanidinoethyl)phenoxy]ethyl}-3-oxo-4-(4-picolyl)-2H-1,4-benzoxazine] | 444 |
| O=C1NC(=O)C(c2ccc(OCCC3Oc4ccccc4N(Cc4cccc(Cl)c4)C3=O)cc2)S1 (centres unmarked) [Compound 134, 5-[4-{2-[4-(3-Chlorobenzyl)-3,4-dihydro-3-oxo-2H-1,4-benzoxazin-2-yl]ethoxy}phenyl]thiazolidine-2,4-dione] | 23 |
| CC(C)(C)OC(=O)NCCc1cccc(OCCC2Oc3ccccc3N(Cc3ccc(Cl)cc3)C2=O)c1 (centres unmarked) [Compound 7, 2-{2-[3-(2-t-Butoxycarbonylaminoethyl)phenoxy]ethyl}-4-(4-chlorobenzyl)-3,4-dihydro-3-oxo-2H-1,4-benzoxazine] | 308 |
| N=C(N)NCCc1ccc(OCCC2CN(Cc3ccc(Cl)cc3Cl)c3ccccc3O2)cc1 (centres unmarked) [Compound 68, (2,4-Dichlorobenzyl)-3,4-dihydro-2-{2-[4-(2-guanidinoethyl)phenoxy]ethyl}-4-2H-1,4-benzoxazine] | 17 |
| NCCc1ccc(OCCC2Oc3ccccc3N(Cc3cccc(C(=O)O)c3)C2=O)cc1 (centres unmarked) [Compound 112, 3-{3,4-Dihydro-2-[2-(4-(2-aminoethyl)phenoxy)]ethyl-3-oxo-2H-1,4-benzoxazin-4-yl}methylbenzoic Acid] | 254 |
| CC(C)(C)OC(=O)NCc1ccc(OCCC2Oc3ccccc3N(Cc3cccc(Cl)c3)C2=O)cc1 (centres unmarked) [Compound 1, 2-[2-[4-(t-Butoxycarbonylaminomethyl)phenoxy]ethyl]-4-(3-chlorobenzyl)-3,4-dihydro-3-oxo-2H-1,4-benzoxazine] | 253 |
| N=C(N)NCCc1ccc(OCCC2Oc3ccccc3N(Cc3cccc(OCc4ccccc4)c3)C2=O)cc1 (centres unmarked) [Compound 35, 4-(3-Benzyloxybenzyl)-3,4-dihydro-2-{2-[4-(2-guanidinoethyl)phenoxy]ethyl}-3-oxo-2H-1,4-benzoxazine] | 24 |
| CN1C(=O)C(CCOc2ccc(CCNC(=NC(=O)OC(C)(C)C)NC(=O)OC(C)(C)C)cc2)Oc2ccccc21 (centres unmarked) [Compound 59, 2-{2-[4-[2-(N,N'-Bis-tert-butoxycarbonylguanidino)ethyl]phenoxy]ethyl}-3,4-dihydro-4-methyl-3-oxo-2H-1,4-benzoxazine] | 473 |
| COc1cccc(CN2C(=O)C(CCOc3ccc(CCNC(=N)N)cc3)Oc3ccccc32)c1 (centres unmarked) [Compound 33, 3,4-Dihydro-2-{2-[4-(2-guanidinoethyl)phenoxy]ethyl}-4-(3-methoxybenzyl)-3-oxo-2H-1,4-benzoxazine] | 145 |
| N=C(N)NCCc1ccc(OCCC2Oc3cc(F)ccc3N(Cc3cccc(Cl)c3)C2=O)cc1 (centres unmarked) [Compound 55, 4-(3-Chlorobenzyl)-3,4-dihydro-7-fluoro-2-{2-[4-(2-guanidinoethyl)phenoxy]ethyl}-3-oxo-2H-1,4-benzoxazine] | 28 |
| CC(C)(C)OC(=O)NCc1ccc(OCCC2Oc3ccccc3N(Cc3ccccc3Cl)C2=O)cc1 (centres unmarked) [Compound 13, 2-[2-[4-(t-Butoxycarbonylaminomethyl)phenoxy]ethyl]-4-(2-chlorobenzyl)-3,4-dihydro-3-oxo-2H-1,4-benzoxazine] | 272 |
| CC(C)(C)OC(=O)NCc1ccc(OCCC2Oc3ccccc3N(Cc3ccc(Cl)cc3)C2=O)cc1 (centres unmarked) [Compound 3, 2-[2-[4-(t-Butoxycarbonylaminomethyl)phenoxy]ethyl]-4-(4-chlorobenzyl)-3,4-dihydro-3-oxo-2H-1,4-benzoxazine] | 283 |
| NCc1cccc(OCCC2Oc3ccccc3N(Cc3ccc(Cl)cc3)C2=O)c1 (centres unmarked) [Compound 10, 2-[2-[3-(Aminomethyl)phenoxy]ethyl]-4-(4-chlorobenzyl)-3,4-dihydro-3-oxo-2H-1,4-benzoxazine] | 122 |
| COc1ccc(CN2C(=O)C(CCOc3ccc(CCNC(=N)N)cc3)Oc3ccccc32)cc1 (centres unmarked) [Compound 37, 3,4-Dihydro-2-{2-[4-(2-guanidinoethyl)phenoxy]ethyl}-4-(4-methoxybenzyl)-3-oxo-2H-1,4-benzoxazine] | 51 |
| N=C(N)NCCc1ccc(OCCC2Oc3cc([N+](=O)[O-])ccc3N(Cc3ccc([N+](=O)[O-])cc3)C2=O)cc1 (centres unmarked) [Compound 97, 3,4-Dihydro-2-{2-[4-(2-guanidinoethyl)phenoxy]ethyl}-7-nitro-4-(4-nitrobenzyl)-3-oxo-2H-1,4-benzoxazine] | 53 |
